Laboratory results reported in patent US20180044738A1, “METHOD OF DIAGNOSING BREAST CANCER, MONITORING TREATMENT OF BREAST CANCER, AND TREATING BREAST CANCER” (University Of Cincinnati, priority 2016, published 2018).
Read-outs that look alike come from different tables or passages of the source.

Tested on: Xenograft tumors
Source text: Xenograft tumors derived from luciferase-expressing MDA-MB-231 and SUM159 cells will be implanted orthotopically in female nude mice. […] Initial dose of the aptamers will follow the previous animal studies (weekly intra-tumoral injection; 2000 pmol each time delivered in 10 sub-injections). The optimal dose will be determined empirically based on the effect on tumor volumes. The lapatinib plus imatinib group will be used to compare the tumor suppression efficacy of drug treatment with the aptamers. […] Tumor volume will be measured weekly with a caliper, and also by an IVIS imaging system (Xenogen) which can reveal potential metastatic sites. Apoptosis will be assessed by TUNEL assay of the tumor tissues; proliferation will be assayed by in vivo BrdU incorporation analysis. Primary tumor with adjacent normal tissues will be examined by hematoxylin/eosin (H&E) staining. Tumor invasion will be assessed based on the extent of infiltration into surrounding tissues, the margins from surrounding tissues, and desomoplastic stromal reaction by smooth muscle actin staining. Human origin of the invasive cells will be confirmed by staining for human cytokeratin.

SMILES	tumor growth (mouse, in vivo, po, 100 mg/kg)	tumor growth (oral gavage, 100 mg/kg of each drug, in a month, preliminary results, data not shown)
Cc1ccc(NC(=O)c2ccc(CN3CCN(C)CC3)cc2)cc1Nc1nccc(-c2cccnc2)n1 [imatinib]	not either drug alone	
CS(=O)(=O)CCNCc1ccc(-c2ccc3ncnc(Nc4ccc(OCc5cccc(F)c5)c(Cl)c4)c3c2)o1 [lapatinib]		not either drug alone
